This is an account of results in BindingDB's records for doi:10.1016/j.bmcl.2005.12.051 (Procter & Gamble Pharmaceuticals, 2006).

The experiment concerns the target T1, Tyrosine-protein phosphatase non-receptor type 1 [1-298] (Homo sapiens, UniProt P18031).
T1 construct: 1-298
T1 sequence (P18031 whole entry): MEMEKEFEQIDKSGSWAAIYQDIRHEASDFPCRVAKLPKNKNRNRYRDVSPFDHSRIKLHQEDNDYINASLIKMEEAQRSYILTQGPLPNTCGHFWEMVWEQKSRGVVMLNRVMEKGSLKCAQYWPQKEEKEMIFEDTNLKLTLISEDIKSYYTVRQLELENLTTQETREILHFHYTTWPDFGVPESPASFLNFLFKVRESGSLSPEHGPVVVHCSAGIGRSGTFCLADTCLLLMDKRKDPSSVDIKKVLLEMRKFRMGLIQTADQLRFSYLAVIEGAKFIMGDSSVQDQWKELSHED
The experiment in a line: Phosphatase Inhibition Assay. The following applies: for IC50: pH 7, 22 °C. The procedure: The activity of PTP1B enzyme was assayed with DiFMUP as substrate. Hydrolysis of substrate was monitored on a Victor V plate reader (Wallac). Kinetic measurements were measured using 3-5 concentrations of inhibitor around the IC50 over a range of substrate concentrations (3-500 uM). Data were used to determine Km/Ki/competitive inhibition using GraphPad Prism software.

Bounds are passed on as bounds.

By Ki is commonly meant the equilibrium dissociation constant of an inhibitor or competing ligand from its target. Read a high Ki as lower affinity. By IC50 is commonly meant the concentration needed to halve the response being measured. A lower IC50 goes with greater potency in that assay.

`Cn1nc(-c2ccccc2)cc1NS(=O)(=O)O` [N-(1-methyl-3-phenyl-1H-pyrazol-5-yl)sulfamic acid] came in with a Ki of more than 500 µM.

As to `CNC(=O)[C@@H]1Cc2ccc(NS(=O)(=O)O)cc2CN1C(=O)C=Cc1coc2ccccc12` [ammonium N-[(3S)-2-[(2E)-3-(1-benzofuran-3-yl)prop-2-enoyl]-3-(methylcarbamoyl)-1,2,3,4-tetrahydroisoquinolin-7-yl]sulfamate], inhibition was half-maximal at 24.9 µM (IC50).

The compound `CNC(=O)[C@@H]1Cc2ccc(NS(=O)(=O)O)cc2CN1C(=O)N[C@@H](Cc1ccccc1)C(=O)OC(C)(C)C` [ammonium N-[(3S)-2-{[(2S)-1-(tert-butoxy)-1-oxo-3-phenylpropan-2-yl]carbamoyl}-3-(methylcarbamoyl)-1,2,3,4-tetrahydroisoquinolin-7-yl]sulfamate] displayed a 50% inhibitory concentration (IC50) of more than 500 µM.
